Some test systems named below: CAKI-1; CCRF-CEM; HCC 2998; HCT-15; HL-60; HOP-62; Hs-578T; LOX IMVI; MOLT-4; OVCAR-5; OVCAR-8; SF-268; SF-539; SK-OV-3; SN12C; SR; T47D; UACC-257; SK-MEL-28.
Common to all, as to experiment: NCI-60 cell line screen, 48 h

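Cultured in 96-well plates, cells were exposed to test compound for 48 hours across five concentrations. At the GI50, growth is halved.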 Calls of active or inactive are those of the source. Cut-off read from the data, not from the text of the source: active = GI50 up to about 1.1 µM and inactive = higher. Where a SMILES comes first, the peptide text is derived from it. [ ]: non-standard residue; d: D form. The star is where a group is joined. NMeAc5c = CNC1(C(=O)O)CCCC1; Boc = CC(C)(C)OC(=O)*; OBn = c1ccc(CO*)cc1 Some results are limits rather than exact numbers.

Turning to `COc1ccc(-n2c(N)c(C#N)c(C#N)c2-c2ccccc2)cc1`, the GI50 is > 100 µM (inactive) with CAKI-1; > 100 µM (inactive) in the test on CCRF-CEM; > 100 µM (inactive) in the test with HCC 2998; more than 100 µM in the test with HCT-15; > 100 µM (inactive) in the test on HL-60; 87.7 µM (inactive) with HOP-62. Further, the GI50 in the test on Hs-578T is 6.58 µM (inactive); with LOX IMVI, > 100 µM (inactive); with MOLT-4, > 100 µM (inactive); in the test on OVCAR-5, > 100 µM (inactive); in the test on OVCAR-8, 84.7 µM (inactive); in the test on SF-268 it was 31.1 µM (inactive). For the same compound, the GI50 in the test with SF-539 is 11 µM (inactive); with SK-OV-3, > 100 µM (inactive); with SN12C it was > 100 µM (inactive); with SR it was > 100 µM (inactive); with T47D it was 4.57 µM (inactive); in the test on UACC-257 it was > 100 µM (inactive).

For the compound `ClC1(Cl)C2CCOC21n1cnc2ccccc21` (configuration not stated), the GI50 in the test on CAKI-1 was > 100 µM (inactive); with CCRF-CEM, > 100 µM (inactive); in the test with HCC 2998 it was > 100 µM (inactive); in the test with HCT-15 it was more than 100 µM; in the test on HL-60, > 100 µM (inactive); in the test on HOP-62 it was > 100 µM (inactive). For the same compound, the GI50 with Hs-578T is > 100 µM (inactive); in the test with LOX IMVI, 98.2 µM (inactive); in the test on MOLT-4, > 100 µM (inactive); in the test with OVCAR-5 it was > 100 µM (inactive); in the test with OVCAR-8, > 100 µM (inactive); with SF-268 it was > 100 µM (inactive). The GI50 in the test on SF-539, in the test on SK-MEL-28, with SK-OV-3, in the test with SN12C, in the test with SR and in the test with T47D was > 100 µM (inactive) each time.

Turning to `S=c1sscc1N1CCSc2ssc(=S)c21`, the GI50 was > 100 µM (inactive) in the test with CAKI-1; > 100 µM (inactive) in the test on CCRF-CEM; > 100 µM (inactive) in the test with HCC 2998; 47.5 µM in the test on HCT-15; > 100 µM (inactive) in the test with HL-60; 88.1 µM (inactive) in the test on Hs-578T. Besides, the GI50 is 28.4 µM (inactive) with LOX IMVI; > 100 µM (inactive) in the test on MOLT-4; > 100 µM (inactive) with OVCAR-5; 4.66 µM (inactive) in the test on OVCAR-8; 35.9 µM (inactive) with SF-268; 42.3 µM (inactive) in the test with SF-539. The GI50 in the test with SK-MEL-28 was > 100 µM (inactive); with SN12C, 25.8 µM (inactive); with SR, > 100 µM (inactive); with T47D, 20.8 µM (inactive); with UACC-257, > 100 µM (inactive).

Take `CC(=O)Oc1c(-c2ccccc2)oc2ccccc12`: the GI50 in the test on CAKI-1 was 1.11 µM (active); in the test with CCRF-CEM it was 1.58 µM (inactive); with HCC 2998 it was 1.31 µM (inactive); in the test with HCT-15, 1.99 µM; in the test with HL-60 it was 1.12 µM (inactive); in the test with HOP-62 it was 2.42 µM (inactive). The GI50 is 2.36 µM (inactive) with Hs-578T; 0.398 µM (active) in the test with LOX IMVI; 1.89 µM (inactive) with MOLT-4; 1.85 µM (inactive) with OVCAR-5; 2.88 µM (inactive) in the test with OVCAR-8; 2.28 µM (inactive) in the test on SF-268. The GI50 with SF-539 was 1.36 µM (inactive); with SK-MEL-28, 2.38 µM (inactive); in the test on SN12C, 2.19 µM (inactive); with SR, 0.394 µM (active); in the test on T47D it was 1.98 µM (inactive); in the test with UACC-257, 2.59 µM (inactive).

As for `CCCCCCCCCCCCOc1ccc(/C=C/C2=[N+](CCCl)CCO2)cc1`, the GI50 with CAKI-1 was > 100 µM (inactive); in the test on CCRF-CEM, 22.8 µM (inactive); with HCC 2998, 39.1 µM (inactive); in the test on HCT-15 it was 31.7 µM; in the test with HL-60, 12.8 µM (inactive); in the test on HOP-62, > 100 µM (inactive). Also, the GI50 with Hs-578T was 56.6 µM (inactive); in the test with LOX IMVI it was 17.7 µM (inactive); with MOLT-4 it was 25 µM (inactive); with OVCAR-5, > 100 µM (inactive); in the test on OVCAR-8, 56.4 µM (inactive); with SF-539, > 100 µM (inactive). In addition, the GI50 in the test on SK-MEL-28 was > 100 µM (inactive); in the test on SK-OV-3 it was > 100 µM (inactive); in the test on SN12C, 77.4 µM (inactive); with SR, 19.6 µM (inactive); with T47D it was 76.4 µM (inactive); in the test with UACC-257 it was 63.2 µM (inactive).

For the compound `N#Cc1c(C#N)c(-c2ccccc2)n(/N=C\c2ccccc2)c1N`, the GI50 in the test with CAKI-1 was 18.3 µM (inactive); with CCRF-CEM, 12.3 µM (inactive); with HCC 2998, 19.7 µM (inactive); with HCT-15, 30.6 µM; in the test with HL-60, 16.1 µM (inactive); with HOP-62, 31.3 µM (inactive). Moreover, the GI50 is 15.9 µM (inactive) with Hs-578T; 8.02 µM (inactive) in the test with LOX IMVI; 5.27 µM (inactive) in the test on MOLT-4; 29 µM (inactive) in the test with OVCAR-5; 18 µM (inactive) with OVCAR-8; 28.8 µM (inactive) in the test with SF-268. The GI50 in the test on SF-539 was 15.9 µM (inactive); in the test with SK-OV-3, 14.1 µM (inactive); with SN12C it was 47 µM (inactive); in the test on SR, 10.4 µM (inactive); in the test on T47D, 3.37 µM (inactive); in the test with UACC-257, 17.3 µM (inactive).

`O=C1C(=C(C(F)(F)Cl)C(F)(F)Cl)C2CCC1C2` (configuration not stated): the GI50 in the test on CCRF-CEM is 0.00986 µM (active); with HCC 2998 it was 5.31 µM (inactive); in the test with HCT-15, 1.98 µM; in the test with HL-60, 0.238 µM (active); with HOP-62, > 9.16 µM (inactive); with Hs-578T, 4.51 µM (inactive). Moreover, the GI50 with LOX IMVI was 1.33 µM (inactive); in the test on MOLT-4, 0.0131 µM (active); in the test with OVCAR-5, 2.96 µM (inactive); in the test on OVCAR-8, 1.94 µM (inactive); in the test with SF-268, 2.41 µM (inactive); with SF-539 it was 3.29 µM (inactive). For the same compound, the GI50 in the test with SK-MEL-28 was 1.93 µM (inactive); in the test on SK-OV-3, > 10 µM (inactive); with SN12C it was 1.97 µM (inactive); in the test on SR, 0.0655 µM (active); in the test on T47D, 1.38 µM (inactive); with UACC-257 it was 1.9 µM (inactive).

`CCOC(=O)c1c(-c2ccc(Cl)cc2)c(C#N)c(=S)n(C2OC(CO)C(O)C(O)C2O)c1-c1ccccc1` (configuration not stated): the GI50 is 29.8 µM (inactive) in the test with CAKI-1; 18.1 µM (inactive) in the test on CCRF-CEM; 28.9 µM (inactive) in the test with HCC 2998; 29.9 µM in the test with HCT-15; > 10 µM (inactive) in the test with HL-60; 20.3 µM (inactive) in the test with HOP-62. In addition, the GI50 in the test on Hs-578T is 24.2 µM (inactive); in the test with LOX IMVI, 14.6 µM (inactive); with MOLT-4, 13.5 µM (inactive); in the test with OVCAR-5, 21.8 µM (inactive); in the test with SF-268, 28.1 µM (inactive); with SF-539 it was 19.5 µM (inactive). Also, the GI50 with SK-MEL-28 is 17.3 µM (inactive); in the test on SK-OV-3 it was 28.3 µM (inactive); in the test on SN12C, 38.4 µM (inactive); in the test with SR, 33.1 µM (inactive); in the test with T47D it was 23.2 µM (inactive); in the test on UACC-257, 27.5 µM (inactive).

With `O=P(Oc1ccc(Cl)cc1)(Oc1ccc(Cl)cc1)N1CC1`, the GI50 is 0.174 µM (active) in the test with CCRF-CEM; > 10 µM (inactive) in the test with HCC 2998; more than 10 µM in the test on HCT-15; > 10 µM (inactive) with HL-60; > 10 µM (inactive) with HOP-62; > 10 µM (inactive) in the test with Hs-578T. Further, the GI50 in the test with LOX IMVI, with MOLT-4, with OVCAR-5, in the test with OVCAR-8, in the test on SF-268 and in the test with SF-539 was > 10 µM (inactive) each time. The GI50 in the test on SK-MEL-28 was > 10 µM (inactive); in the test with SK-OV-3 it was > 10 µM (inactive); with SN12C, > 10 µM (inactive); with SR, > 10 µM (inactive); in the test with T47D it was > 10 µM (inactive); in the test on UACC-257 it was 4.38 µM (inactive).

As to `CC1(C)CCCC(C)(C2CCC3(C)C2C(O)CC2C4(C)CCC(O)C(C)(C)C4CCC23C)O1` (configuration not stated), the GI50 with CAKI-1 was 42.7 µM (inactive); with CCRF-CEM, > 100 µM (inactive); with HCC 2998, > 100 µM (inactive); in the test with HCT-15, more than 100 µM; with HL-60 it was 26.4 µM (inactive); with Hs-578T it was 20.7 µM (inactive). Besides, the GI50 with LOX IMVI was > 100 µM (inactive); in the test with MOLT-4, 93.1 µM (inactive); in the test with OVCAR-5, > 100 µM (inactive); with OVCAR-8, 42.4 µM (inactive); in the test on SF-268 it was 51.1 µM (inactive); in the test on SF-539 it was 42.9 µM (inactive). The GI50 in the test with SK-MEL-28 was > 100 µM (inactive); in the test on SK-OV-3 it was 46.2 µM (inactive); in the test on SN12C it was > 100 µM (inactive); in the test with SR, > 100 µM (inactive); with T47D, > 100 µM (inactive); with UACC-257, > 100 µM (inactive).

Consider `CN(C(=O)C(Cc1ccccc1)NC(=O)OC(C)(C)C)C1(C(=O)NC(Cc2ccccc2)C(=O)OCc2ccccc2)CCCC1` (stereo not drawn) (Boc-Phe-[NMeAc5c]-Phe-OBn; configuration not given here), for which the GI50 with CCRF-CEM is 39.7 µM (inactive); with HCC 2998, 77.4 µM (inactive); with HCT-15 it was 28.7 µM; in the test with HL-60, 24.9 µM (inactive); in the test on HOP-62 it was 38.5 µM (inactive); in the test with Hs-578T, 41.3 µM (inactive). The GI50 with LOX IMVI was 45.1 µM (inactive); in the test on MOLT-4, 26.9 µM (inactive); in the test on OVCAR-5, > 100 µM (inactive); in the test with OVCAR-8, 38 µM (inactive); with SF-268, 35.4 µM (inactive); in the test on SF-539 it was 74.3 µM (inactive). Further, the GI50 in the test on SK-MEL-28 was 58.1 µM (inactive); with SK-OV-3, 0.653 µM (active); in the test with SN12C, 46.5 µM (inactive); in the test with SR, 22.2 µM (inactive); in the test on T47D, 75.5 µM (inactive); in the test with UACC-257, 57.3 µM (inactive).

Source of the values: ChEMBL document CHEMBL1201862, “PubChem BioAssay data set” (2004).
